Data from patent US8983257B2, “Therapeutic light delivery apparatus, method, and system” (Nomir Medical Technologies, Inc., priority 2002, dated 2015).
Values joined by “and” are separate entries in the source; they are usually repeats but may differ in a detail not shown here. Equal values may be shown once. “Also recorded” adds a separate entry of the source.

Experiments:
Assay type in all cases: cell-based, Staphylococcus aureus
[1] = test system: MRSA; experiment: MRSA/antimicrobial potentiation Experiment 4: CFU with or without methicillin, penicillin G or erythromycin, groups A4 to F4; settings: for CFU: agar with 30 μg/ml methicillin
Description: Two different laser dosages based on an effective dose established in previous experiments were used to treat a saline-suspension of logarithmically growing MRSA, labeled A4 to F4.

[2] = test system: MRSA; experiment: MRSA/antimicrobial potentiation Experiment 2: CFU with or without 30 μg/ml methicillin, laser dosages A2 to H2; settings: for Fold increase in methicillin sensitivity: 30 μg/ml methicillin
Description: Eight different laser dosages based on an effective dose established in experiment 1 and previously were used to treat a saline-suspension of logarithmically growing MRSA, labeled A2 to H2.
(§1) The treated and a control untreated suspension were diluted and plated in triplicate on trypic soy agar with or without 30 μg/ml methicillin.
(§2) After 24 hrs of growth at 37° C. colonies were counted.

[3] = test system: MRSA; experiment: MRSA/antimicrobial potentiation Experiment 3: CFU with or without 30 μg/ml methicillin, laser dosages A3 to H3; settings: for Fold increase in methicillin sensitivity: 30 μg/ml methicillin
Description: Eight different laser dosages based on an effective dose established in experiments 1 and 2 and previously were used to treat a saline-suspension of logarithmically growing MRSA, labeled A3 to H3.
[…] After 24 hrs of growth at 37° C. colonies were counted.

[4] = test system: MRSA; experiment: MRSA/antimicrobial potentiation Experiment 1: CFU with or without 30 μg/ml methicillin, laser dosages A1 to H1; settings: for fewer CFU in the laser treated samples compared to the untreated controls: methicillin plates (30 μg/ml)
Description: Four separate experiments have been performed.
Eight different laser dosages were used to treat a saline-suspension of logarithmically growing MRSA, labeled A1 to H1.
as §1, §2
CFU (colony forming units) were compared between the plates with and without methicillin for both control (untreated) and treated MRSA.

[5] = test system: MRSA; experiment: MRSA CFU count with methicillin after sub-lethal NIMELS laser (Example X); settings: methicillin at resistant MIC just below effectiveness level
Excerpt: The following illustrates the general antibacterial methods according to the invention, using a MRSA model for the in vitro Experiments V and VIII-XII.
a) μ1 is sub-lethal dosimetry from the NIMEL laser system on MRSA as a control and;

SMILES: COc1cccc(OC)c1C(=O)N[C@@H]1C(=O)N2[C@@H]1SC(C)(C)[C@@H]2C(=O)O [Methicillin]
- CFU ([1]; Group A4, Cont (no laser), replicate plates 1-5, 24 hrs 37° C.): 97 CFU and 90 CFU
- CFU ([1]; Group A4, Exp (laser treated), replicate plates 1-5): 37 CFU and 33 CFU and 36 CFU (2×) and 39 CFU
- CFU ([1]; Group B4, Exp (laser treated), replicate plates 1-5): 46 CFU (2×) and 34 CFU and 42 CFU and 44 CFU
- synergy or potentiation with NIMELS in growth inhibition of MRSA colonies (in words) ([1]; sub-lethal NIMELS dosimetry, bar chart figure): synergistic effects; also recorded: potentiated by sub-lethal NIMELS dosimetry
- reversal of MRSA resistance in vitro by dual wavelength NOVEON laser (in words) ([1]; temperature levels not lethal to the organism): successful reversal of MRSA resistance
- CFU AVG ([2]; A2, Exp (laser treated), plates with 30 μg/ml methicillin): 41
- effectiveness of methicillin in laser treated samples (in words) ([2]; CFU on plates with and without 30 μg/ml methicillin, groups A2 to H2): significant increase in the effectiveness of methicillin in all laser treated samples with the exception of A2 and B2
- CFU AVG ([2]; D2, Cont (untreated suspension), plates with 30 μg/ml methicillin): 52
- CFU AVG ([2]; D2, Exp (laser treated), plates with 30 μg/ml methicillin): 2.3
- CFU AVG ([2]; E2, Exp (laser treated), plates with 30 μg/ml methicillin): 2.7
- CFU AVG ([2]; F2, Cont (untreated suspension), plates with 30 μg/ml methicillin): 71
- CFU AVG ([2]; G2, Exp (laser treated), plates with 30 μg/ml methicillin): 8.3
- CFU ([2]; H2, Cont (untreated suspension), plates with 30 μg/ml methicillin, single plates): 82
- Fold increase in methicillin sensitivity ([2]; laser dosage grouping A2): 0.84
- Fold increase in methicillin sensitivity ([2]; laser dosage grouping B2): 0.91
- Fold increase in methicillin sensitivity ([2]; laser dosage grouping C2): 3.20
- Fold increase in methicillin sensitivity ([2]; laser dosage grouping D2): 2.44
- Fold increase in methicillin sensitivity ([2]; laser dosage grouping E2): 4.33
- Fold increase in methicillin sensitivity ([2]; laser dosage grouping F2): 2.13
- Fold increase in methicillin sensitivity ([2]; laser dosage grouping G2): 3.47
- Fold increase in methicillin sensitivity ([2]; laser dosage grouping H2): 1.62
- CFU AVG ([3]; B3, Exp (laser treated), plates with 30 μg/ml methicillin): 19
- effectiveness of methicillin in laser treated samples (in words) ([3]; CFU on plates with and without 30 μg/ml methicillin, groups A3 to H3): significant increase in the effectiveness of methicillin in all laser treated samples
- CFU ([3]; D3, Cont (untreated suspension), plates with 30 μg/ml methicillin, single plates): 58
- CFU AVG ([3]; D3, Exp (laser treated), plates with 30 μg/ml methicillin): 3.6
- CFU AVG ([3]; F3, Exp (laser treated), plates with 30 μg/ml methicillin): 9.8
- CFU AVG ([3]; G3, Exp (laser treated), plates with 30 μg/ml methicillin): 8.4
- CFU AVG ([3]; H3, Exp (laser treated), plates with 30 μg/ml methicillin): 8.4
- Fold increase in methicillin sensitivity ([3]; laser dosage grouping A3): 1.98
- Fold increase in methicillin sensitivity ([3]; laser dosage grouping B3): 1.62
- Fold increase in methicillin sensitivity ([3]; laser dosage grouping C3): 1.91
- Fold increase in methicillin sensitivity ([3]; laser dosage grouping D3): 2.59
- Fold increase in methicillin sensitivity ([3]; laser dosage grouping E3): 2.09
- Fold increase in methicillin sensitivity ([3]; laser dosage grouping F3): 2.08
- Fold increase in methicillin sensitivity ([3]; laser dosage grouping G3): 3.16
- Fold increase in methicillin sensitivity ([3]; laser dosage grouping H3): 2.97
- AVG (CFU) ([4]; Exp (laser treated), laser dosage F1, with 30 μg/ml methicillin): 197 CFU
- fewer CFU in the laser treated samples compared to the untreated controls ([4]; condition A1): 30%
- fewer CFU in the laser treated samples compared to the untreated controls ([4]; condition B1): 33%
- fewer CFU in the laser treated samples compared to the untreated controls ([4]; condition C1): 67%
- sensitization of MRSA by laser treatment (in words) ([4]; treatments performed on sample A1, B1 and C1): sensitized the MRSA to the effects of methicillin
- effect of methicillin after sub-lethal NIMELS irradiation on growth of MRSA colonies (in words) [5]: potentiated by sub-lethal NIMELS dosimetry; also recorded: produces a deleterious effect after sub-lethal NIMEL irradiation on normal growth of MRSA colonies
